What was measured:
human APJ receptor = human APJ receptor (Homo sapiens (Human), UniProt P35414); assay: [35S]GTPγS binding assay on membranes from CHO cells stably expressing human APJ receptor; type: biochemical; settings: read-out: Activity hAPJ SPA EC50 IP
Outline: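 Membranes from CHO cells stably expressing FLAG-tagged human APJ; assay buffer GDP, MgCl2 and NaCl levels optimised beforehand. Incubation 90 min at RT, imager read-out. EC50 from non-linear regression on means of several independent experiments.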

heart failure rats = assay: Cardiac contractility in vivo in heart failure rat model; settings: alone, acute settings
Method: Evidence for Improvement in Cardiac Contractility In Vivo in Heart Failure Rat Model Based on ex vivo findings in isolated heart assay, APJ agonists are dosed in vivo to investigate the translation of cardiac contractility in in vivo settings. Male Lewis rats (Charles River, USA) at 2-3 months of age are used for the study. Heart failure is induced by permanent ligation of the left descending coronary artery which results in injury to the heart with an ejection fraction of <35%. APJ agonists are administered dose dependently acutely for a period of 30 min. Administration of APJ agonists lead to an increase in cardiac contractility as measured by dP/dtmax (derivative of left ventricular pressure).

Sequence of human APJ receptor (P35414 whole entry): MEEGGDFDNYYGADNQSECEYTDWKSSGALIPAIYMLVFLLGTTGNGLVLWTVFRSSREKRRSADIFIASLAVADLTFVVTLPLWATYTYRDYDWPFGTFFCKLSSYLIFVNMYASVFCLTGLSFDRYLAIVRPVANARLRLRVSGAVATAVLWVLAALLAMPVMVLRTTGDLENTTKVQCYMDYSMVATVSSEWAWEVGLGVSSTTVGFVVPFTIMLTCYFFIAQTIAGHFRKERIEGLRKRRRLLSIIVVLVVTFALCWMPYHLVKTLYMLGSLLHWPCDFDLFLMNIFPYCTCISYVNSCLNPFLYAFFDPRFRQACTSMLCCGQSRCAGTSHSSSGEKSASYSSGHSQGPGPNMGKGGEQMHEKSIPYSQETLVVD

Compound	EC50 (human APJ receptor)	improvement in contractility or ejection fraction (heart failure rats)
COCC1COc2ccc(OC)cc2-c2nnc(NS(=O)(=O)[C@@H](C)[C@@H](OC(C)C)c3ncc(C)cn3)n21 (single isomer, unassigned) [Example 152.0, (1S,2S)-N-((5R)-10-methoxy-5-(methoxymethyl)-5,6-dihydro[1,2,4]triazolo[4,3-d][1,4]benzoxazepin-3-yl)-1-(5-methyl-2-pyrimidinyl)-1-(2-propanyloxy)-2-propanesulfonamide or (1S,2S)-N-((5S)-10-methoxy-5-(methoxymethyl)-5,6-dihydro[1,2,4]triazolo[4,3-d][1,4]benzoxazepin-3-yl)-1-(5-methyl-2-pyrimidinyl)-1-(2-propanyloxy)-2-propanesulfonamide]	37 nM	–
COC[C@@H]1COc2c(OC)cccc2-c2nnc(NS(=O)(=O)[C@@H](C)[C@H](C)c3ncc(OC)cn3)n21 (single isomer, unassigned) [Example 9.0, (2S,3R)-N-((5R)-8-methoxy-5-(methoxymethyl)-5,6-dihydro[1,2,4]triazolo[4,3-d][1,4]benzoxazepin-3-yl)-3-(5-methoxy-2-pyrimidinyl)-2-butanesulfonamide or (2S,3R)-N-((5S)-8-methoxy-5-(methoxymethyl)-5,6-dihydro[1,2,4]triazolo[4,3-d][1,4]benzoxazepin-3-yl)-3-(5-methoxy-2-pyrimidinyl)-2-butanesulfonamide]	1600 nM	–
COC[C@@H]1COc2cnccc2-c2nnc(NS(=O)(=O)[C@@H](C)[C@@H](OC(C)C)c3ncc(C)cn3)n21 (mixture of isomers) [Example 65.0, (1S,2S)-N-((5R)-5-(methoxymethyl)-5,6-dihydropyrido[4,3-f][1,2,4]triazolo[4,3-d][1,4]oxazepin-3-yl)-1-(5-methyl-2-pyrimidinyl)-1-(2-propanyloxy)-2-propanesulfonamide and (1S,2S)-N-((5S)-5-(methoxymethyl)-5,6-dihydropyrido[4,3-f][1,2,4]triazolo[4,3-d][1,4]oxazepin-3-yl)-1-(5-methyl-2-pyrimidinyl)-1-(2-propanyloxy)-2-propanesulfonamide]	1200 nM	–
COC[C@@H]1COc2ccc(OC)nc2-c2nnc(NS(=O)(=O)[C@@H](C)[C@@H](OC(C)C)c3ncc(C)cn3)n21 (mixture of isomers) [Example 11.0, (1S,2S)-N-((5R)-10-methoxy-5-(methoxymethyl)-5,6-dihydropyrido[2,3-f][1,2,4]triazolo[4,3-d][1,4]oxazepin-3-yl)-1-(5-methyl-2-pyrimidinyl)-1-(2-propanyloxy)-2-propanesulfonamide and (1S,2S)-N-((5S)-10-methoxy-5-(methoxymethyl)-5,6-dihydropyrido[2,3-f][1,2,4]triazolo[4,3-d][1,4]oxazepin-3-yl)-1-(5-methyl-2-pyrimidinyl)-1-(2-propanyloxy)-2-propanesulfonamide]	41 nM	–
COC[C@@H]1COc2c(OC)cccc2-c2nnc(NS(=O)(=O)[C@@H](C)[C@H](C)c3ncc(OC)cn3)n21 (single isomer, unassigned) [Example 8.0, (2S,3R)-N-((5R)-8-methoxy-5-(methoxymethyl)-5,6-dihydro[1,2,4]triazolo[4,3-d][1,4]benzoxazepin-3-yl)-3-(5-methoxy-2-pyrimidinyl)-2-butanesulfonamide or (2S,3R)-N-((5S)-8-methoxy-5-(methoxymethyl)-5,6-dihydro[1,2,4]triazolo[4,3-d][1,4]benzoxazepin-3-yl)-3-(5-methoxy-2-pyrimidinyl)-2-butanesulfonamide]	270 nM	–
Cc1cnc([C@H](OC(C)C)[C@H](C)S(=O)(=O)Nc2nnc3n2[C@H](CO)COc2cccnc2-3)nc1 (mixture of isomers) [Example 58.0, (1S,2S)-N-((R)-5-(hydroxymethyl)-5,6-dihydropyrido[2,3-f][1,2,4]triazolo[4,3-d][1,4]oxazepin-3-yl)-1-isopropoxy-1-(5-methylpyrimidin-2-yl)propane-2-sulfonamide and (1S,2S)-N-((S)-5-(hydroxymethyl)-5,6-dihydropyrido[2,3-f][1,2,4]triazolo[4,3-d][1,4]oxazepin-3-yl)-1-isopropoxy-1-(5-methylpyrimidin-2-yl)propane-2-sulfonamide]	2100 nM	–
C[C@H](CS)C(=O)N1CCC[C@H]1C(=O)O [Captopril, captopril]	–	does not show a marked improvement in contractility or ejection fraction acutely
COC[C@@H]1COc2ccc(F)cc2-c2nnc(NS(=O)(=O)[C@@H](C)[C@@H](OC(C)C)c3ncc(C)cn3)n21 (single isomer, unassigned) [Example 25.0, (1S,2S)-N-((5R)-10-fluoro-5-(methoxymethyl)-5,6-dihydro[1,2,4]traizolo[4,3-d][1,4]benzoxazepin-3-yl)-1-(5-methyl-2-pyrimidinyl)-1-(2-propanyloxy)-2-propanesulfonamide or (1S,2S)-N-((5S)-10-fluoro-5-(methoxymethyl)-5,6-dihydro[1,2,4]traizolo[4,3-d][1,4]benzoxazepin-3-yl)-1-(5-methyl-2-pyrimidinyl)-1-(2-propanyloxy)-2-propanesulfonamide]	28 nM	–
C=C1COc2ncccc2-c2nnc(NS(=O)(=O)[C@@H](C)[C@@H](OC(C)C)c3ncc(Cl)cn3)n21 [Example 60.0, (1S,2S)-1-(5-chloro-2-pyrimidinyl)-N-(5-methylidene-5,6-dihydropyrido[3,2-f][1,2,4]triazolo[4,3-d][1,4]oxazepin-3-yl)-1-(2-propanyloxy)-2-propanesulfonamide]	850 nM	–
COC[C@@H]1COc2cccnc2-c2nnc(NS(=O)(=O)[C@@H](C)[C@@H](OC(C)C)c3ncc(C)cn3)n21 (mixture of isomers) [Example 61.0, (1S,2S)-N-((5R)-5-(methoxymethyl)-5,6-dihydropyrido[2,3-f][1,2,4]triazolo[4,3-d][1,4]oxazepin-3-yl)-1-(5-methyl-2-pyrimidinyl)-1-(2-propanyloxy)-2-propanesulfonamide and (1S,2S)-N-((5S)-5-(methoxymethyl)-5,6-dihydropyrido[2,3-f][1,2,4]triazolo[4,3-d][1,4]oxazepin-3-yl)-1-(5-methyl-2-pyrimidinyl)-1-(2-propanyloxy)-2-propanesulfonamide]	440 nM	–
COC[C@@H]1COc2c(OC)cccc2-c2nnc(NS(=O)(=O)[C@@H](C)[C@@H](OC(C)C)c3ncc(C)cn3)n21 (single isomer, unassigned) [Example 39.0, (1S,2S)-N-((5R)-8-methoxy-5-(methoxymethyl)-5,6-dihydro[1,2,4]traizolo[4,3-d][1,4]benzoxazepin-3-yl)-1-(5-methyl-2-pyrimidinyl)-1-(2-propanyloxy)-2-propanesulfonamide or (1S,2S)-N-((5S)-8-methoxy-5-(methoxymethyl)-5,6-dihydro[1,2,4]traizolo[4,3-d][1,4]benzoxazepin-3-yl)-1-(5-methyl-2-pyrimidinyl)-1-(2-propanyloxy)-2-propanesulfonamide]	8 nM	–
COC[C@@H]1COc2ccccc2-c2nnc(NS(=O)(=O)[C@@H](C)[C@H](C)c3ncc(OC)cn3)n21 (single isomer, unassigned) [Example 2.0, (2S,3R)-N-((5R)-5-(methoxymethyl)-5,6-dihydro[1,2,4]triazolo[4,3-d][1,4]benzoxazepin-3-yl)-3-(5-methoxy-2-pyrimidinyl)-2-butanesulfonamide or (2S,3R)-N-((5S)-5-(methoxymethyl)-5,6-dihydro[1,2,4]triazolo[4,3-d][1,4]benzoxazepin-3-yl)-3-(5-methoxy-2-pyrimidinyl)-2-butanesulfonamide]	770 nM	–
CO[C@H](c1ncc(C)cn1)[C@H](C)S(=O)(=O)Nc1nnc2n1[C@H](CO)COc1ncccc1-2 (mixture of isomers) [Example 36.0, (1R,2S)-N-((5R)-5-(hydroxymethyl)-5,6-dihydropyrido[3,2-f][1,2,4]triazolo[4,3-d][1,4]oxazepin-3-yl)-1-methoxy-1-(5-methyl-2-pyrimidinyl)-2-propanesulfonamide and (1R,2S)-N-((5S)-5-(hydroxymethyl)-5,6-dihydropyrido[3,2-f][1,2,4]triazolo[4,3-d][1,4]oxazepin-3-yl)-1-methoxy-1-(5-methyl-2-pyrimidinyl)-2-propanesulfonamide]	1800 nM	–
COC[C@@H]1COc2cccnc2-c2nnc(NS(=O)(=O)[C@@H](C)[C@@H](OC(C)C)c3ncc(C)cn3)n21 (single isomer, unassigned) [Example 70.0, (1S,2S)-N-((5R)-5-(methoxymethyl)-5,6-dihydropyrido[2,3-f][1,2,4]triazolo[4,3-d][1,4]oxazepin-3-yl)-1-(5-methyl-2-pyrimidinyl)-1-(2-propanyloxy)-2-propanesulfonamide or (1S,2S)-N-((5S)-5-(methoxymethyl)-5,6-dihydropyrido[2,3-f][1,2,4]triazolo[4,3-d][1,4]oxazepin-3-yl)-1-(5-methyl-2-pyrimidinyl)-1-(2-propanyloxy)-2-propanesulfonamide]	1210 nM	–
Cc1cnc([C@H](OC(C)C)[C@H](C)S(=O)(=O)Nc2nnc3n2-c2c(F)cccc2/C=C\C[C@@H]3C)nc1 (single isomer, unassigned) [Example 52.0]	> 12500 nM	–

Source: patent US11149040B2, “Fused triazole agonists of the APJ receptor” (AMGEN INC., priority 2017, dated 2021)
